Biological target: Retinol-binding protein 4 (Homo sapiens, UniProt P02753)
Assay: Binding Assay: Streptavidin (20 ul) (10 ug/ml Streptavidin type II (Wako Pure Chemical Industries, Ltd.), 10 mM Tris-HCl (pH 7.5), 10 mM NaCl) was added to a 384 well black plate (Nunc MaxiSorp, Thermo Fisher Scientific Inc.), and the plate was subjected to centrifugation (1000 rpm, 1 min) and coated overnight at 4 C. The plate was washed twice with PBST (PBS, 0.05% Tween 20, 100 ul/well) and blocked with 25% Block Ace (Snow Brand Milk Products Co., Ltd., PBS, 100 ul/well). The plate was subjected to centrifugation (1000 rpm, 1 min) and incubated at room temperature for 4 hr or overnight at 4 C. The plate was washed twice with PBST (PBS, 0.05% Tween 20, 100 ul/well), and biotinylate human TTR (stock solution concentration 1.0 mg/ml) diluted 750-fold with PBST was added at 20 ul/well. The plate was subjected to centrifugation (1000 rpm, 1 min) and stood still at room temperature for 1.5 hr or overnight at 4 C. The plate was washed 3 times with PBST (100 ul/well).

Compound: CC(C)(C)c1ccccc1N1CCN(C(=O)c2nc[nH]n2)CC1
- IC50: 15 nM

— ChEMBL document CHEMBL3639268, “Derivatives of N-acyl-N‚Ä=-phenylpiperazine useful (inter alia) for the prophylaxis or treatment of diabetes” (2014)
